Columns and labels:
ABCB1 [1] = biological target: T1, ABCB1 (Homo sapiens, UniProt P08183); experiment: biochemical
ABCB1 [2] = biological target: T1, ABCB1

T1 sequence (P08183 whole entry): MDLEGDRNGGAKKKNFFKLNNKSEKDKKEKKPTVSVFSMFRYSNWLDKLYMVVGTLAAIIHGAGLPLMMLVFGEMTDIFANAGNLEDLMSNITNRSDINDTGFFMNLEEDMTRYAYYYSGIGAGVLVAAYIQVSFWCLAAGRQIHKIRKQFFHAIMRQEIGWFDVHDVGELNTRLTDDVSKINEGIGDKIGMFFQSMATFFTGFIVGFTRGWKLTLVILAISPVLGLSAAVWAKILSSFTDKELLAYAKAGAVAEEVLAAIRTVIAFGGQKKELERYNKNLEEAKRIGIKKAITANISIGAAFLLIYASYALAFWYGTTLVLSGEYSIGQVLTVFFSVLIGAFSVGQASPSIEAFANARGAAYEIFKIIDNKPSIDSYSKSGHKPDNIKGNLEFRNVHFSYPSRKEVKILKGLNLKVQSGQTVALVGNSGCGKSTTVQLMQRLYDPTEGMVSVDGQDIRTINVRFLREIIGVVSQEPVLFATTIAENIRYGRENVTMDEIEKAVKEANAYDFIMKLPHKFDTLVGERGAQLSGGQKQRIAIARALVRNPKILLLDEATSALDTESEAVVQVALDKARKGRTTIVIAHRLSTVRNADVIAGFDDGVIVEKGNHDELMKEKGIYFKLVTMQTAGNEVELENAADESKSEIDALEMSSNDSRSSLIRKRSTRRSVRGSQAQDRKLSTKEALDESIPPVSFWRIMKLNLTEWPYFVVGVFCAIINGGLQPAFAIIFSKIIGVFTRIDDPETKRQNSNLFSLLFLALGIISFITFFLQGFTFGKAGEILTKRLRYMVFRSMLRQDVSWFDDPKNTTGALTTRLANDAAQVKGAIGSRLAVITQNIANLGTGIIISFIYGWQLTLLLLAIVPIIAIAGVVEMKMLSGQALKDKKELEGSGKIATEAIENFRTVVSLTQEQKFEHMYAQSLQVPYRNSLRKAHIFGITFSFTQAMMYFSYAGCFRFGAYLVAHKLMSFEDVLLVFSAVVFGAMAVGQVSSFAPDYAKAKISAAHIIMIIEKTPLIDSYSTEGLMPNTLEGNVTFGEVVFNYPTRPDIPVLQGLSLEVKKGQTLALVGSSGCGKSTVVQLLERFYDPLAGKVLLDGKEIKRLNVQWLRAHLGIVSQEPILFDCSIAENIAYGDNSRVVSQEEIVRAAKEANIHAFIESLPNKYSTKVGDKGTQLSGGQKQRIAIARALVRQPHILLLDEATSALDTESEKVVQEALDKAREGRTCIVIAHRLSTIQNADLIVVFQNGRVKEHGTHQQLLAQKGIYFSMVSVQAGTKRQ

| EC50 (ABCB1 [1]) [nM] | SMILES | [3H]-paclitaxel accumulation and efflux in KB-C2 versus parental KB-3-1 cells (ABCB1 [2]) |
| --- | --- | --- |
| 450 | COc1cc2c(cc1OC(C)C)[C@H](c1ccc(Cl)cc1)N(c1ccc(N(C)C[C@H]3CC[C@H](N4CCN(C)C(=O)C4)CC3)cc1)C(=O)C2 [NVP-CGM097] |  |
|  | CC(=O)O[C@H]1C(=O)[C@@]2(C)[C@H]([C@H](OC(=O)c3ccccc3)[C@]3(O)C[C@H](OC(=O)[C@H](O)[C@@H](NC(=O)c4ccccc4)c4ccccc4)C(C)=C1C3(C)C)[C@]1(OC(C)=O)CO[C@@H]1C[C@@H]2O [paclitaxel] | NVP-CGM097 can block the efflux activity of ABCB1-overexpressing cells, therefore, increasing intracellular paclitaxel accumulation |
